PubChem BioAssay (NCI)
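Where inhibition never reached the appropriate level, the endpoint shown equals the highest concentration tested. Otherwise, values were interpolated linearly from a five-concentration, 48-hour dose response in 96-well plates. GI50: concentration for 50% inhibition of growth. TGI marks complete inhibition of growth.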 Where a SMILES comes first, the peptide text is derived from it. The star is where a group is joined. Fmoc = O=C(OCC1c2ccccc2-c2ccccc21)*; OBn = c1ccc(CO*)cc1; tBu = CC(C)(C)*

Experiments:
Experiment in all cases: inhibition of tumour cell growth, NCI panel, 48 h
NCI-H522 lung = system: NCI-H522 lung
SK-OV-3 ovarian = system: SK-OV-3 ovarian
HT29 colon = system: HT29 colon
OVCAR-3 ovarian = system: OVCAR-3 ovarian
SN12C renal = system: SN12C renal
NCI/ADR-RES ovarian = system: NCI/ADR-RES ovarian
SR leukemia = system: SR leukemia
IGROV1 ovarian = system: IGROV1 ovarian
MDA-MB-435 = system: MDA-MB-435
DU-145 prostate = system: DU-145 prostate

Compound	TGI (NCI-H522 lung) [µM]	TGI (SK-OV-3 ovarian) [µM]	TGI (HT29 colon) [µM]	TGI (OVCAR-3 ovarian) [µM]	TGI (SN12C renal) [µM]	TGI (NCI/ADR-RES ovarian) [µM]	TGI (SR leukemia) [µM]	TGI (IGROV1 ovarian) [µM]	TGI (MDA-MB-435) [µM]	TGI (DU-145 prostate) [µM]	GI50 (NCI-H522 lung) [µM]	GI50 (SK-OV-3 ovarian) [µM]	GI50 (HT29 colon) [µM]	GI50 (OVCAR-3 ovarian) [µM]	GI50 (SN12C renal) [µM]	GI50 (NCI/ADR-RES ovarian) [µM]	GI50 (SR leukemia) [µM]	GI50 (IGROV1 ovarian) [µM]	GI50 (MDA-MB-435) [µM]	GI50 (DU-145 prostate) [µM]
N=C(N)c1ccc(N=Nc2c(O)c(C(=O)Nc3ccccc3)cc3ccccc23)cc1	34.5	> 90.8	42.4	> 53.3	54.5	> 100	> 75.8	> 74.6	> 100	> 100	–	–	–	–	–	–	–	–	–	–
Nc1ncnc2c1ncn2CCCNO	> 100	> 100	> 100	> 100	> 100	> 100	> 100	> 100	> 100	> 100	–	–	–	–	–	–	–	–	–	–
O=[N+]([O-])C(/C=C(\Cl)[N+](=O)[O-])=C(Nc1ccccc1)Nc1ccccc1	4.55	34.5	25.7	17.3	29.4	58.5	6.02	31	17.4	31.7	–	–	–	–	–	–	–	–	–	–
CC[P+](c1ccccc1)(N(C)C)N(C)C	> 100	> 100	> 100	> 100	> 100	> 100	> 100	> 100	> 100	> 100	–	–	–	–	–	–	–	–	–	–
C=C(CCC(=O)N(CCc1c[nH]c2ccccc12)C(=O)c1ccccc1CSCC)C(=O)OC	> 100	> 100	> 100	> 100	> 100	> 100	> 100	> 100	> 100	> 100	–	–	–	–	–	–	–	–	–	–
NCC1OC(OC2C(N)CC(N)C(O)C2OC2OC(CO)C(O)C2O)C(N)C(O)C1O (stereo unspecified)	> 100	> 100	> 100	> 100	> 100	> 100	> 50	> 100	> 100	> 100	–	–	–	–	–	–	–	–	–	–
CCCCCCCCCCCCCCCCOC[C@H](COC(c1ccccc1)(c1ccccc1)c1ccccc1)O[P+](=S)OC (stereo partly specified)	> 100	> 100	> 100	> 100	> 100	> 100	> 100	> 100	> 100	> 100	–	–	–	–	–	–	–	–	–	–
CCOC(=O)c1c(-c2ccc(Cl)cc2)c(C#N)c(=S)n(C2OC(COC(C)=O)C(OC(C)=O)C(OC(C)=O)C2OC(C)=O)c1C (stereo unspecified)	> 100	> 100	> 100	> 100	> 100	> 100	> 100	> 100	> 100	> 100	–	–	–	–	–	–	–	–	–	–
COC(=O)c1sc2c(Cl)c(Cl)sc2c1Cl	> 100	> 100	> 100	> 100	> 100	> 100	> 100	> 100	> 100	> 100	–	–	–	–	–	–	–	–	–	–
O=c1ccc(=O)c2c1c1[nH]c3ccccc3c1c1c(=O)c3ccccc3c(=O)c21	> 10	> 10	> 10	> 10	> 10	> 10	> 10	> 10	> 10	> 10	–	–	–	–	–	–	–	–	–	–
COc1cc2ccc(C(C)NCC#N)cc2cc1OC (stereo unspecified)	> 100	> 100	> 100	> 100	> 100	> 100	> 100	> 100	> 100	> 100	–	–	–	–	–	–	–	–	–	–
COc1ccc(Nc2nc(N)c(C(=O)c3ccco3)s2)cc1	> 100	> 100	> 100	> 70.6	> 100	> 94.8	> 33.8	> 100	16.9	> 100	–	–	–	–	–	–	–	–	–	–
Cc1c(C)c2c(c(N)c1C#N)C(=O)N(NC(=S)Nc1ccccc1)C2=O	> 100	> 100	> 100	> 100	> 100	> 100	83.5	> 100	> 100	> 100	–	–	–	–	–	–	–	–	–	–
CCOC(=O)C(NC(=O)c1ccccc1)(Nc1ccc(S(=O)(=O)Nc2cc(C)on2)cc1)C(F)(F)F (stereo unspecified)	> 100	> 100	> 100	> 100	> 100	> 100	> 100	> 100	> 100	> 100	–	–	–	–	–	–	–	–	–	–
Cc1c(-c2ccccc2)oc(=O)c2ccccc12	33.2	54.4	34.6	41.8	38.1	75.4	65.4	46.6	34.6	> 100	–	–	–	–	–	–	–	–	–	–
CCOc1ccc(Nc2nc(N)nc(N)c2N=O)cc1	> 100	> 100	> 100	> 100	> 100	> 100	> 100	33.4	> 100	> 100	–	–	–	–	–	–	–	–	–	–
O=c1c2ccccc2n2nnc3ccc(NCCNCCO)c1c32	7.23	16.5	6.49	5.81	13.1	5.96	8.05	15.6	10.8	2.7	–	–	–	–	–	–	–	–	–	–
CN(Cc1ccccc1)C(=S)S	> 100	> 100	> 100	> 100	> 100	> 100	59.7	> 100	> 100	> 100	–	–	–	–	–	–	–	–	–	–
COC1=C(OC)C(=O)C(Cc2c(-c3ccccc3)nc3sc(Cl)cn23)=C(C)C1=O	30.8	37.8	41.7	32	30.4	39.9	72.1	29.9	33.1	49.1	–	–	–	–	–	–	–	–	–	–

Compound	TGI (NCI-H522 lung) [µM]	TGI (SK-OV-3 ovarian) [µM]	TGI (HT29 colon) [µM]	TGI (OVCAR-3 ovarian) [µM]	TGI (SN12C renal) [µM]	TGI (NCI/ADR-RES ovarian) [µM]	TGI (SR leukemia) [µM]	TGI (IGROV1 ovarian) [µM]	TGI (MDA-MB-435) [µM]	TGI (DU-145 prostate) [µM]	GI50 (NCI-H522 lung) [µM]	GI50 (SK-OV-3 ovarian) [µM]	GI50 (HT29 colon) [µM]	GI50 (OVCAR-3 ovarian) [µM]	GI50 (SN12C renal) [µM]	GI50 (NCI/ADR-RES ovarian) [µM]	GI50 (SR leukemia) [µM]	GI50 (IGROV1 ovarian) [µM]	GI50 (MDA-MB-435) [µM]	GI50 (DU-145 prostate) [µM]
Cc1cc(C)n(C(C)(C(=O)Cc2ccccc2)n2nc(C)cc2C)n1	> 100	> 100	> 100	> 100	> 100	> 100	> 100	> 100	> 100	> 100	–	–	–	–	–	–	–	–	–	–
CCOC(=O)/C(=C/c1cn(C(C)=O)c2ccccc12)P(=O)(OC)OC	79.3	> 100	> 100	64.8	> 100	> 100	73.8	> 100	> 100	> 100	–	–	–	–	–	–	–	–	–	–
FC(F)(Sc1ncccn1)c1nc2ccccc2o1	> 100	> 100	> 100	> 100	> 100	> 100	> 100	> 100	> 100	> 100	–	–	–	–	–	–	–	–	–	–
CC1CC(C)(C)CC(OCCN2CCCCC2)(c2ccccc2)C1 (stereo unspecified)	21.6	28.3	9.92	22.5	25.4	33.9	20.4	27.3	24.7	19.8	–	–	–	–	–	–	–	–	–	–
Oc1ccccc1/C=N/c1nc(-c2ccccc2)cs1	62.6	> 100	> 100	> 100	> 100	> 100	79.5	> 100	> 100	> 100	25.4	> 100	58.2	30	30.9	> 100	24.3	> 100	29.7	77.5
COc1ccc(C2CC(c3cccc(Nc4ccncc4)c3)=NN2c2ccccc2)cc1 (stereo unspecified)	3.81	20.9	6.87	3.52	3.23	3.46	5.59	3.51	3.49	6.51	1.81	5.53	2.47	1.86	1.72	1.74	2	1.81	1.78	2.57
CC(=O)CCN1CC2CN=NC2(C#N)C1 (stereo unspecified)	> 20.9	> 100	> 100	> 100	> 100	> 100	> 100	> 100	> 100	> 100	–	> 100	–	–	–	–	–	–	–	–
c1ccc(CN2CCC(CNc3ncnc4ccccc34)C2)cc1 (stereo unspecified)	> 100	> 100	> 100	> 100	> 100	> 100	65.1	> 100	> 100	> 100	–	–	–	–	–	–	–	–	–	–
C=C(C)C1CCC2(C)C1CCC1(C)C2CCC2C3(C)C4OC(OC4=O)C(C)(C)C3CCC21C (stereo unspecified)	53.6	> 100	> 100	> 100	> 100	> 100	> 100	> 100	> 100	> 100	–	–	–	–	–	–	–	–	–	–
CCOC(=O)/C=C(/OCC)[C@@H]1C(C(=O)c2ccc(Cl)cc2)[C@@H]1/C(=C\C(=O)OCC)OCC (stereo partly specified)	> 59.2	> 100	> 100	> 100	> 100	> 34	> 100	> 100	> 83.8	> 100	–	–	–	–	–	–	–	–	–	–
Fc1cccc(C2ON=C(c3ccccc3)N2C23CC4CC(CC(C4)C2)C3)c1 (stereo unspecified)	> 10	> 10	> 10	> 10	> 10	> 10	> 10	> 10	> 10	> 10	–	–	–	–	–	–	–	–	–	–
CN=C1C=C(/N=C2/C=C(N/C(=C\C#N)C(C)(C)O)OC2(C)C)OC1(C)C	69	> 73.6	> 100	> 100	> 100	> 62.6	> 68.5	> 72.5	> 100	> 100	–	–	–	–	–	–	–	–	–	–
C[N+](C)([O-])C12CC3CC(CC(C3)C1)C2	65.7	> 100	> 100	58	> 100	> 100	> 100	> 100	> 100	> 100	–	–	–	–	–	–	–	–	–	–
Clc1ccc(-c2nn3c(COc4ccc(OCc5nnc6sc(-c7ccc(Cl)cc7)nn56)c(Cl)c4)nnc3s2)cc1	37.4	> 100	36.7	> 100	> 100	> 100	61.4	43.9	> 100	> 100	–	–	–	–	–	–	–	–	–	–
CC(C)(C)c1cc(C(C)(C)C)c2sc(=O)oc2c1O	26.7	35.3	33.2	25.9	27.1	30.1	63.6	27.7	25.6	32.8	–	–	–	–	–	–	–	–	–	–
COc1cc(-c2cc(OC)c(OC)c3ccc(Br)cc23)c2cc(Br)ccc2c1OC	72.1	71.8	> 100	46.5	81.6	90.1	86	85.3	46.1	93.4	–	–	–	–	–	–	–	–	–	–
CC(OC(C)(C)C)C(NC(=O)OCC1c2ccccc2-c2ccccc21)C(=O)NC(Cc1ccccc1)C(=O)OCc1ccccc1 (stereo unspecified) (Fmoc-Thr(tBu)-Phe-OBn; configuration not given here)	> 100	> 100	> 100	> 100	> 100	> 100	> 100	> 100	> 100	> 100	–	–	–	–	–	–	–	–	–	–
CC(C)(C)OC(=O)N1CCC2(CC1)C(=O)NCN2c1ccccc1	> 100	> 100	> 100	> 100	> 100	> 100	> 100	> 100	> 100	> 100	–	–	–	–	–	–	–	–	–	–
